Read-outs that look alike come from different tables or passages of the source.
Legend:
CRBN-DDB1 = CRBN-DDB1 (Homo sapiens (Human), UniProt Q96SW2); assay: Compound binding to CRBN by HTRF assay
Procedure: Compound activity was monitored in a Homogenous Time-Resolved Fluorescence (HTRF) assay using 1-[5-({2-[2-(2-{[2-(2,6-dioxopiperidin-3-yl)-1,3-dioxo-2,3-dihydro-1H-isoindol-4-yl]oxy}acetamido)ethoxy]ethyl}carbamoyl)pentyl]-3,3-dimethyl-2-[(1E,3E)-5-[(2E)-1,3,3-trimethyl-5-sulfo-2,3-dihydro-1H-indol-2-ylidene]penta-1,3-dien-1-yl]-3H-indol-1-ium-5-sulfonate as a fluorescent probe. Biochemical assays were conducted in Greiner white 384 well HiBase plates (Cat. No 784075-25) in 20 μL total volume. A one pot detection solution of CRBN-DDB1 (2.5 nM), Anti-His Terbium Cryptate Gold (1×, PerkinElmer Cat. #: 61HI2TLB), and Cy5-Thalidomide (100 nM, Tenova Cat.: T52461) was prepared in 20 mM HEPES, 20 mM NaCl, 0.2 mM TCEP, 0.2 mM EDTA, and 0.005% Tween20 was dispensed to each assay plate. Compounds were stored in dry, ambient temperatures at 10 mM. An 11-point, 1:3 dilution series was prepared from 10 mM stock concentrations in Echo-compatible LDV plates. 10 nL of each compound dilution series was dispensed into assays wells using an Echo 650 (Labcyte Inc. USA). 20 nL of 10 mM Lenalidomide was transferred into the active-control wells for the assay and 20 nL of DMSO was transferred into the neutral-control wells. The assay was then allowed to incubate for 30 min at ambient temperature after transferring compound. Plate measurements were taken on a Pherastar FSX (BMG Labtech, Germany) using the HTRF Red filter (Ex. 337 nm, em1: 620 nm, em2: 665 nm) (Flashes: 50, Integration time: 60-400 us, Z-height: 10 mm, Ratio-multiplier: 10,000). The HTRF signal was then subsequently normalized to the neutral and active controls. Analysis and EC50 values were derived using KNIME analytics (KNIME Zurich) transformation and fitting within Collaborative Drug Discovery (Collaborative Drug Discovery USA). Ki was derived from the geometric mean of the EC50 values using the Cheng-Prustoff transformation.

NEK7 = NEK7 (Homo sapiens (Human), UniProt Q8TDX7+Q96SW2); assay: NEK7 NanoBiT degradation assay in Cal51 NEK7 NanoBiT cell line; type: cell-based; conditions: Cal51 NEK7 NanoBiT cells, 24 hours; for Dmax: CAL-51
Sequence of NEK7 (Q8TDX7 whole entry): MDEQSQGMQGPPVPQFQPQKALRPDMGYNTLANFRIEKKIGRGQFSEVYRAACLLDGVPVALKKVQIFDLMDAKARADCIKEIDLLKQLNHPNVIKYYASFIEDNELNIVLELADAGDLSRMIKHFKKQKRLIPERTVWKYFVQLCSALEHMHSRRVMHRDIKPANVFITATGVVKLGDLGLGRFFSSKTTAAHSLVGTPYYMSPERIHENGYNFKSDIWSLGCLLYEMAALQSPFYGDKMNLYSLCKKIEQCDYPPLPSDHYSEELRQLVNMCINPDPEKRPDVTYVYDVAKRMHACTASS
Sequence of NEK7 (Q96SW2 whole entry): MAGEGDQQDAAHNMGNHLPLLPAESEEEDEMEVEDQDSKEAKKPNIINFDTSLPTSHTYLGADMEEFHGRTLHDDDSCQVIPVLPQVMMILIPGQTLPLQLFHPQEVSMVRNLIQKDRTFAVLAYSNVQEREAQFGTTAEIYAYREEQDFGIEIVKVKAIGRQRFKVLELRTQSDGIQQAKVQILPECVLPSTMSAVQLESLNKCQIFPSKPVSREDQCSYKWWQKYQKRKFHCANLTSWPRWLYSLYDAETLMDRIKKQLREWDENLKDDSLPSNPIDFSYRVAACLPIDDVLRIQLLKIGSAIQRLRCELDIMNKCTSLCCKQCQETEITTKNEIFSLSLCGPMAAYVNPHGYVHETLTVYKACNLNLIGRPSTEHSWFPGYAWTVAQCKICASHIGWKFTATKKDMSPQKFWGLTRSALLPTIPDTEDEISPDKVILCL
Sequence of NEK7 (Q16531 2-1140 partner): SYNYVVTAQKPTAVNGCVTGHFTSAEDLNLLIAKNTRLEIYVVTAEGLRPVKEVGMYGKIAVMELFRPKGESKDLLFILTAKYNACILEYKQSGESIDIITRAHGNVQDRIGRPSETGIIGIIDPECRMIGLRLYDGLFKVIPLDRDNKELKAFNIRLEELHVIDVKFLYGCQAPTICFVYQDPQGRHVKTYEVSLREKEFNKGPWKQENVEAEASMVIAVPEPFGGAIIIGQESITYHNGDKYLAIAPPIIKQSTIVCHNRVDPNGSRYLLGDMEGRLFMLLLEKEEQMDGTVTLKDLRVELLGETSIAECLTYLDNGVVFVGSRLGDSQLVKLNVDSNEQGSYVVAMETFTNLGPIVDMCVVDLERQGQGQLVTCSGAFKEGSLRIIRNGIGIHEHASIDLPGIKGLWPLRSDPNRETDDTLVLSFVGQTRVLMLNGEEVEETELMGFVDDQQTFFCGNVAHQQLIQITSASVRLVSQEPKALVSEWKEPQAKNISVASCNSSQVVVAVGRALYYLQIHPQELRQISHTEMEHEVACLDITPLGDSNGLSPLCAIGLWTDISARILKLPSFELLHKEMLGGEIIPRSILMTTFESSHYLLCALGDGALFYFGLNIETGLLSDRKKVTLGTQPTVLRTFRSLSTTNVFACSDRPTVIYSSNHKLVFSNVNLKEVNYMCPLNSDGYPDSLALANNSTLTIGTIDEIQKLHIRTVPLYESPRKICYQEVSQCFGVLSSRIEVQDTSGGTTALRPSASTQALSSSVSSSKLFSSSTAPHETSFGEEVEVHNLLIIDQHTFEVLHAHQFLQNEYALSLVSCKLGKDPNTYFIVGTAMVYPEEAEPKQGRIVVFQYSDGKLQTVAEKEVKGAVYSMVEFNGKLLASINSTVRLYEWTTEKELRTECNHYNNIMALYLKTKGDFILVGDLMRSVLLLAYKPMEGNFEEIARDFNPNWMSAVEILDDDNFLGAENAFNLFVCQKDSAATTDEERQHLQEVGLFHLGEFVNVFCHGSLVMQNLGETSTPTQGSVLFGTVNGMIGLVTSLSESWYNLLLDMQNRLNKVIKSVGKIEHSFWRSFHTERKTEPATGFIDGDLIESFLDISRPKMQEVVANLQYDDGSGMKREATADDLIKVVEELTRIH
Procedure: Cal51 NEK7 NanoBiT cell line was generated via CRISPR Knock-In of the HiBiT tag in NEK7 gene and stable infection with a lentivirus carrying LgBiT protein. The cell line was generated in house. For the experiment, cells were plated in 384-well white flat bottom plates (Corning, 3570BC) at 2500 cells per well using Multiflo (BioTek/Agilent) and in 25 μl volume in DMEM experimental medium: DMEM (DMEM, high glucose, HEPES, no phenol red (ThermoFisher Scientific, 21063029) supplemented with 10% FBS (Corning, 35-075-CV), 1% Penicillin/Streptomycin ((ThermoFisher Scientific, 15140-122), and 1% Endurazine (Nano-Glo Endurazine Live Cell Substrate (Promega, N2571)). Cells were incubated for 16 hours at 37° C., 5% CO2 before compound addition. For dose response determination, 2.5 nL of a compound at different concentrations (stock compound concentration range: 10 mM to 0.5 μM, final concentration range inside cell plate: 1 μM to 0.05 nM) were dispensed into the plate using an Echo® 650 liquid handling device (Backman Coulter/Labcyte). Cells were incubated at 37° C., 5% CO2 for 24 hours and then signal was read on a Pherastar FSX using “LUM plus” optic module with 4095 gain and measurement interval time 0.2 seconds.
Analysis was performed in Genedata Screener (Genedata, Basel, CH). Luminescence response (R) was calculated by the formula: response=100*(S−N)/(P−N) where S is the signal of the well, N and P the mean negative and positive control values respectively of the same plate. The luminescence response was then fitted in Genedata using a 4-parameter antagonist logistic fit (hill slope unconstrained, EC50>0, top/bottom unconstrained).

[1] = NEK7 degradation, read-out: NanoBiT Dmax
[2] = NEK7 degradation, read-out: NanoBiT DC50

Sequence of CRBN-DDB1 (Q96SW2 whole entry): as the sequence (Q96SW2 whole entry) above
Sequence of CRBN-DDB1 (Q16531 whole entry partner): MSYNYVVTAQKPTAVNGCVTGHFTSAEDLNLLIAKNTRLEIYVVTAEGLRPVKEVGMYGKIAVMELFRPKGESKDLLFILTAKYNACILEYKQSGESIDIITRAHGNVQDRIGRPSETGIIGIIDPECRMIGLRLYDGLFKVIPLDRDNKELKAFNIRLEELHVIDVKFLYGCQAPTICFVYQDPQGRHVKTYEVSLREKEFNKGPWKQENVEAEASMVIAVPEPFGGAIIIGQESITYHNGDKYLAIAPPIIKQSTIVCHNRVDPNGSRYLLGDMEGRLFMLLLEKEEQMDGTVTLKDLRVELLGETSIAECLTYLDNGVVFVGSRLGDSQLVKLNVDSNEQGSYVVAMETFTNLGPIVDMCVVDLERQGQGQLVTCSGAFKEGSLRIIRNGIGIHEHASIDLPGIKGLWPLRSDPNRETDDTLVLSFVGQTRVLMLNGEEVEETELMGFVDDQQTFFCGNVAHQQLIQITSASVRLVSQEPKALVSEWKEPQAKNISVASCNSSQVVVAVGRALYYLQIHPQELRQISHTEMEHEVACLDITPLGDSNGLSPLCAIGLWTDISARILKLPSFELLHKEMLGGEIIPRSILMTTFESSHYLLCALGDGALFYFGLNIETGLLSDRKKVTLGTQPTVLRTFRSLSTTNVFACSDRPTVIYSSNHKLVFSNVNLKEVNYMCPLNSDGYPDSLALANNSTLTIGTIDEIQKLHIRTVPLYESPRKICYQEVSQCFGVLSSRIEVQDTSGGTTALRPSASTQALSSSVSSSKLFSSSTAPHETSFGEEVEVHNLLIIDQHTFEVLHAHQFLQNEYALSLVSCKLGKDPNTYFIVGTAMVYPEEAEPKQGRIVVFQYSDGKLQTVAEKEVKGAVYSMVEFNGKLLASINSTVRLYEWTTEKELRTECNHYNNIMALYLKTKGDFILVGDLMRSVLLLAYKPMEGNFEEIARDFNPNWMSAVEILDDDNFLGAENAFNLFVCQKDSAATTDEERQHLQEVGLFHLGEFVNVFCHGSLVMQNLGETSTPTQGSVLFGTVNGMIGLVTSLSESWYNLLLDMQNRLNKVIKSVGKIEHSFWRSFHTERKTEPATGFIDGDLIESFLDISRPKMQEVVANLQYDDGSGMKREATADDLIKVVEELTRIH

| SMILES | EC50 (CRBN-DDB1) [nM] | EC50 (CRBN-DDB1; HTRF class, Cereblon binding) [nM] | Dmax (NEK7; read-out: NEK7 NanoBiT Dmax) [%] | Dmax (NEK7; [1]) [%] | DC50 (NEK7; read-out: NEK7 NanoBiT DC50) [nM] | DC50 (NEK7; [2]) [nM] |
| --- | --- | --- | --- | --- | --- | --- |
| CC(C)(C(=O)NCc1cc(Cl)c(C2CCC(=O)NC2=O)c(Cl)c1)c1ccc(C(N)=O)c(F)c1 (stereo not drawn) [Compound 57] | 130 | 100 to 1000 | 94 | > 75 | 3 | ≤ 100 |
| CC(C)(C(=O)NCc1cc(Cl)c([C@@]2(F)CCC(=O)NC2=O)c(Cl)c1)c1ccccc1 (single isomer, unassigned) [Compound 274] | ≥ 10000 | > 1000 | 3 | ≤ 50 | 1000 | > 1000 |
| CC(C)(C(=O)NCc1cc(Cl)c(C2CCC(=O)NC2=O)c(Cl)c1)c1ccn2cnnc2c1 (stereo not drawn) [Compound 44] | 230 | 100 to 1000 | 88 | > 75 | 38 | ≤ 100 |
| CC(C)(C(=O)NCc1ccc(C2CCC(=O)NC2=O)c(Cl)c1)c1cccc(C#N)c1 (stereo not drawn) [Compound 18] | 540 | 100 to 1000 | 61 | 50 to 75 | 206 | 100 to 1000 |
| CC1(C(=O)NCc2cc(Cl)c(C3CCC(=O)NC3=O)c(Cl)c2)COc2ccccc2C1 (stereo not drawn) [Compound 38, N-(3,5-dichloro-4-(2,6-dioxopiperidin-3-yl)benzyl)-3-methylchromane-3-carboxamide] | 40 | ≤ 100 | 90 | > 75 | 6 | ≤ 100 |
| CC(C)(C(=O)NCc1cc(Cl)c(C2CCC(=O)NC2=O)c(Cl)c1)c1ccc(OC(F)(F)F)nn1 (stereo not drawn) [Compound 223, N-(3,5-dichloro-4-(2,6-dioxopiperidin-3-yl)benzyl)-2-methyl-2-(6-(trifluoromethoxy)pyridazin-3-yl)propanamide] | 90 | ≤ 100 | 91 | > 75 | 8 | ≤ 100 |
| CC(C)(C(=O)NCc1cc(Cl)c(C2CCC(=O)NC2=O)c(Cl)c1)c1ccc(C(F)(F)F)nn1 (stereo not drawn) [Compound 191] | 170 | 100 to 1000 | 85 | > 75 | 13 | ≤ 100 |
| CC(C)(C(=O)NCc1cc(Cl)c(C2CCC(=O)NC2=O)c(Cl)c1)c1ncco1 (stereo not drawn) [Compound 124] | 140 | 100 to 1000 | 73 | 50 to 75 | 78 | ≤ 100 |
| CC(C)(C(=O)NCc1cc(Cl)c(C2CCC(=O)NC2=O)c(Cl)c1)c1cnc(CC(F)F)cn1 (stereo not drawn) [Compound 240] | 150 | 100 to 1000 | 69 | 50 to 75 | 79 | ≤ 100 |
| CC(C)(C(=O)NCc1cc(Cl)c(C2CCC(=O)NC2=O)c(Cl)c1)c1ccc(C(F)F)nn1 (stereo not drawn) [Compound 6, N-(3,5-dichloro-4-(2,6-dioxopiperidin-3-yl)benzyl)-2-(6-(difluoromethyl)pyridazin-3-yl)-2-methylpropanamide] | 210 | 100 to 1000 | 91 | > 75 | 7 | ≤ 100 |
| Cc1ccc(C(C)(C)C(=O)NCc2cc(Cl)c(C3CCC(=O)NC3=O)c(Cl)c2)nc1 (stereo not drawn) [Compound 89] | 120 | 100 to 1000 | 92 | > 75 | 6 | ≤ 100 |
| CC(C)(C(=O)NCc1cc(Cl)c(C2CCC(=O)NC2=O)c(Cl)c1)c1nc(C2CC2)co1 (stereo not drawn) [Compound 193] | 80 | ≤ 100 | 87 | > 75 | 10 | ≤ 100 |
| Cc1coc(C(C)(C)C(=O)NCc2cc(Cl)c(C3CCC(=O)NC3=O)c(Cl)c2)n1 (stereo not drawn) [Compound 197] | 120 | 100 to 1000 | 87 | > 75 | 13 | ≤ 100 |
| CC(C)(C(=O)NCc1cc(Cl)c(C2CCC(=O)NC2=O)c(Cl)c1)c1cn(C(C)(F)F)c(=O)cn1 (stereo not drawn) [Compound 266, N-(3,5-dichloro-4-(2,6-dioxopiperidin-3-yl)benzyl)-2-(4-(1,1-difluoroethyl)-5-oxo-4,5-dihydropyrazin-2-yl)-2-methylpropanamide] | 120 | 100 to 1000 | 82 | > 75 | 15 | ≤ 100 |
| COc1cnc(C(C)(C)C(=O)NCc2cc(F)c(C3CCC(=O)NC3=O)c(Cl)c2)nc1 (stereo not drawn) [Compound 256] | 80 | ≤ 100 | 85 | > 75 | 11 | ≤ 100 |
| CC(C)(C(=O)NCc1ccc(C2CCC(=O)NC2=O)c(Cl)c1)c1ccncc1 (stereo not drawn) [Compound 109] | 480 | 100 to 1000 | 69 | 50 to 75 | 250 | 100 to 1000 |
| CC(C)(C(=O)NCc1cc(Cl)c(C2CCC(=O)NC2=O)c(Cl)c1)c1ccc(=O)[nH]c1 (stereo not drawn) [Compound 79] | 250 | 100 to 1000 | 83 | > 75 | 92 | ≤ 100 |
| [2H]C([2H])([2H])C(C(=O)NCc1cc(Cl)c(C2CCC(=O)NC2=O)c(Cl)c1)(c1ncc(C)cn1)C([2H])([2H])[2H] (stereo not drawn) [Compound 237] | 150 | 100 to 1000 | 87 | > 75 | 11 | ≤ 100 |
